Test results: the supplement of paper PMC10307832

Tests used:
Test in all cases: relative viability (nuclei count vs DMSO), 5 days (fraction); higher = more cells survive
Veliparib + Alpelisib = compound: C[C@]1(c2nc3c(C(N)=O)cccc3[nH]2)CCCN1 [Veliparib] + Cc1nc(NC(=O)N2CCC[C@H]2C(N)=O)sc1-c1ccnc(C(C)(C)C(F)(F)F)c1 [Alpelisib] (partner 2 µM)
How it was run: (§1)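 Nuclei were stained with Hoechst during a one-step fixation (final 0.05% Triton X-100, 1% formaldehyde, 1 ug/ml Hoechst) carried out 5 days after dosing, then counted on 4× images. The cells, lung cancer lines in 1536-well plates, had been dosed by pin tool the day after seeding with one drug alone or a fixed anchor-drug dose plus five library-drug doses (not always all listed) in √10 steps. Relative viability is the nuclei count in treated wells divided by that in vehicle wells, and each value is the median of duplicate plates.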

[1] = compound: COC1=CC=C(C=C1)CN2C=CC3=C2C=C(C=C3)C(=O)NO + COc1cccc2cc(-c3nc([C@H]4CC[C@H](C(=O)O)CC4)n4ncnc(N)c34)[nH]c12 [OSI-027] (partner 0.5 µM)
How it was run: as §1

[2] = compound: COC1=CC=C(C=C1)CN2C=CC3=C2C=C(C=C3)C(=O)NO + Cc1cc(Nc2cc(N3CCN(C)CC3)nc(Sc3ccc(NC(=O)C4CC4)cc3)n2)n[nH]1 [Tozasertib] (partner 0.1 µM)
How it was run: as §1

[3] = compound: COC1=CC=C(C=C1)CN2C=CC3=C2C=C(C=C3)C(=O)NO + NC(=O)Nc1cc(-c2cccc(F)c2)sc1C(=O)N[C@H]1CCCNC1 [AZD7762] (partner 0.2 µM)
How it was run: as §1

Cell Line	relative viability (Veliparib + Alpelisib; first compound 0.02 µM)	relative viability (Veliparib + Alpelisib; first compound 0.06325 µM)	relative viability (Veliparib + Alpelisib; first compound 0.2 µM)	relative viability (Veliparib + Alpelisib; first compound 0.6325 µM)	relative viability (Veliparib + Alpelisib; first compound 2 µM)	relative viability ([1]; first compound 0.08 µM)	relative viability ([1]; first compound 0.253 µM)	relative viability ([1]; first compound 0.8 µM)	relative viability ([1]; first compound 2.53 µM)	relative viability ([1]; first compound 8 µM)	relative viability ([2]; first compound 0.08 µM)	relative viability ([2]; first compound 0.253 µM)	relative viability ([2]; first compound 0.8 µM)	relative viability ([2]; first compound 2.53 µM)	relative viability ([2]; first compound 8 µM)	relative viability ([3]; first compound 0.08 µM)	relative viability ([3]; first compound 0.8 µM)	relative viability ([3]; first compound 2.53 µM)	relative viability ([3]; first compound 8 µM)	relative viability ([3]; first compound 0.253 µM)
PC-3 [JPC-3]	1.1	0.981	0.959	1.03	0.993	0.766	0.781	0.726	0.813	0.761	0.861	0.912	0.921	0.88	0.908	0.799	0.965	0.869	0.652	
NCI-H23	0.662	0.623	0.749	0.564	0.713	0.511	0.68	0.582	0.732	0.53	0.292	0.352	0.358	0.301	0.281	0.257	0.32	0.271	0.154	0.312
SK-MES-1	0.938	0.712	0.878	0.785	0.848	0.639	0.626	0.62	0.638	0.583	0.816	0.895	0.868	0.874	0.81					
NCI-H1651	0.889	0.83	0.922	0.828	0.856	0.682	0.764	0.758	0.622	0.627	0.574	0.717	0.799	0.713	0.645	0.414	0.394	0.406	0.369	0.437
SK-LU-1	1.12	0.943	1.12	0.927	1.19	0.358	0.316	0.34	0.284	0.352	0.279	0.339	0.325	0.337	0.3					
NCI-H727	0.512	0.572	0.598	0.538	0.488	0.592	0.576	0.513	0.809	0.534	0.592	0.529	0.772	0.602	0.625	0.653	0.57	0.503	0.654	0.538
NCI-H3122	0.785	0.755	0.768	0.76	0.752		1.01	0.945	0.93	0.908		0.327	0.397	0.352	0.382	0.977	1.04	0.999	0.819	1.02
NCI-H1703	0.245	0.303	0.316	0.35	0.368											0.176	0.146	0.123	0.121	0.167
NCI-H520	0.882	1.06	0.859	0.791	1.03	0.218	0.278	0.329	0.319	0.279		0.453	0.428	0.449	0.375					
